Data on 5 molecules can be found in patent US20240239861A1, “GLUCAGON-RECEPTOR SELECTIVE POLYPEPTIDES AND METHODS OF USE THEREOF” (i2O Therapeutics, Inc., priority 2016, published 2024).

A short description of data set [1]: Clearance following intravenous infusion, acylated peptides (1-hour infusion, 0.033 mg/kg). As to conditions: rat, in vivo.
Data set [2] has as its target human GLP-1R (Homo sapiens, UniProt P43220). Briefly: Peptide-receptor mediated cAMP accumulation (LANCE Ultra cAMP) in CHO-K1 cells transfected with human GLP-1R. The data set is classed as cell-based. (In general: cAMP levels reflect the balance of adenylyl cyclase and phosphodiesterase activity.)
The target of data set [3] is human GCGR (Homo sapiens, UniProt P47871). Description: Peptide-receptor mediated cAMP accumulation (LANCE Ultra cAMP) in CHO-K1 cells transfected with human GCGR. The data set is classed as cell-based.
human GCGR, sequence (P47871 26-477): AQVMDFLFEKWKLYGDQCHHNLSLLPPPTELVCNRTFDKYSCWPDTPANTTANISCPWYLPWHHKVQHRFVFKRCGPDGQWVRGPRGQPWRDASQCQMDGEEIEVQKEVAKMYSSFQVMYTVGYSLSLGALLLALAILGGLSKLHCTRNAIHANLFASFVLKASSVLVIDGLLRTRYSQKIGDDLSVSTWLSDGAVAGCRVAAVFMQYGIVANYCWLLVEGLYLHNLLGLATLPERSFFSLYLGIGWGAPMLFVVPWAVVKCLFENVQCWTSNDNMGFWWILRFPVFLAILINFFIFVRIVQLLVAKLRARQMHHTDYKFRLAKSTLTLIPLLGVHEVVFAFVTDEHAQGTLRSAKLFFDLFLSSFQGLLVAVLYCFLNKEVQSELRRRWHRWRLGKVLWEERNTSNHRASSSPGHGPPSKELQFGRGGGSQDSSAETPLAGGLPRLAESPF
The nature of data set [4]: in vivo. As to conditions: male, rat.
Data set [5] in a line: Solubility in water or saline at room temperature, visual inspection. The data set is classed as physicochemical. Particulars: Solubility in water mg/ml. The source says:
Samples were visually inspected for clarity of the sample, any appearance of turbidity or haziness.

The mark [6] stands for this setting: hGLP1 pEC50 (cAMP mean (n = 3): 11 point curve starting at 1 nM, Table 3).

Where two headings read alike, the source gives them in different places. Where a SMILES comes first, the peptide text is derived from it. [ ]: non-standard residue; d: D form. Aib = CC(C)(N)C(=O)O Where only a bound is given, the exact number is not on record here.

human GLP-1R, sequence (P43220 24-463): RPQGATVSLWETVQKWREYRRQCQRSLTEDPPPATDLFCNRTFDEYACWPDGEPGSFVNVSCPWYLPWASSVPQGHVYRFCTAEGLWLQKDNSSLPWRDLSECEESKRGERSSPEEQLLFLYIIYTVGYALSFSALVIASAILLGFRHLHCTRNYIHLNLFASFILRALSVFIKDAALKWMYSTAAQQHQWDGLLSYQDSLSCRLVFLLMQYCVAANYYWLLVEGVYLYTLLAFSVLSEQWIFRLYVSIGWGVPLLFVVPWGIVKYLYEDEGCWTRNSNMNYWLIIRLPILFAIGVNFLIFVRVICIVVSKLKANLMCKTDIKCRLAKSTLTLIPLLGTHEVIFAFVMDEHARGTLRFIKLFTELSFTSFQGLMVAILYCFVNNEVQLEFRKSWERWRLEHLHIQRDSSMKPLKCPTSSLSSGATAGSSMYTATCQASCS

On to `CC(C)C[C@H](NC(=O)[C@H](Cc1ccc(O)cc1)NC(=O)[C@H](CCCCN)NC(=O)[C@H](CO)NC(=O)[C@H](Cc1ccc(O)cc1)NC(=O)[C@H](CC(=O)O)NC(=O)[C@H](CO)NC(=O)[C@@H](NC(=O)[C@H](Cc1ccccc1)NC(=O)[C@@H](NC(=O)CNC(=O)[C@H](Cc1c[nH]cn1)NC(=O)[C@H](CO)NC(=O)[C@@H](N)Cc1ccc(O)cc1)[C@@H](C)O)[C@@H](C)O)C(=O)N[C@@H](CC(=O)O)C(=O)N[C@@H](CCCCNC(=O)COCCOCCNC(=O)COCCOCCNC(=O)CC[C@H](NC(=O)CCCCCCCCCCCCCCCCC(=O)O)C(=O)O)C(=O)N[C@@H](CCCCN)C(=O)N[C@@H](CO)C(=O)N[C@@H](C)C(=O)N[C@@H](CCC(N)=O)C(=O)N[C@@H](CCC(=O)O)C(=O)N[C@@H](Cc1ccccc1)C(=O)N[C@H](C(=O)NC(C)(C)C(=O)N[C@@H](Cc1c[nH]c2ccccc12)C(=O)N[C@@H](CC(C)C)C(=O)N[C@@H](CCC(=O)O)C(=O)N[C@@H](CC(=O)O)C(=O)N[C@@H](CCC(=O)O)C(=O)N1CCC[C@H]1C(=O)N[C@@H](CO)C(=O)N[C@@H](CO)C(=O)NCC(=O)N[C@@H](C)C(=O)N1CCC[C@H]1C(=O)N1CCC[C@H]1C(=O)N1CCC[C@H]1C(=O)N[C@@H](CO)C(=O)O)C(C)C` [Compound B15], for which, in data set [1], the clearance (in general, a measure of how efficiently the substance is removed, as volume per time) was found to be 0.457 mL/min/kg and the half-life (usually the time needed for the level to fall by half in the phase considered) was 9.34 h. For the same molecule, the EC50 in data set [2] (Table 7, GLP-1R, read-out: GLP-1R pEC50 (converted)) was over 1000 nM. For the same molecule, in data set [3] (read-out: GluR pEC50 (converted)), the EC50 was 0.126 nM.

In the case of `CC(C)C[C@H](NC(=O)[C@H](Cc1ccc(O)cc1)NC(=O)[C@H](CCCCN)NC(=O)[C@H](CO)NC(=O)[C@H](Cc1ccc(O)cc1)NC(=O)[C@H](CC(=O)O)NC(=O)[C@H](CO)NC(=O)[C@@H](NC(=O)[C@H](Cc1ccccc1)NC(=O)[C@@H](NC(=O)CNC(=O)[C@H](Cc1c[nH]cn1)NC(=O)[C@H](CO)NC(=O)[C@@H](N)Cc1ccc(O)cc1)[C@@H](C)O)[C@@H](C)O)C(=O)N[C@@H](CC(=O)O)C(=O)N[C@@H](CCC(N)=O)C(=O)N[C@@H](C)C(=O)N[C@@H](CCCNC(=N)N)C(=O)N[C@@H](C)C(=O)N[C@@H](CCC(N)=O)C(=O)N[C@@H](CCC(=O)O)C(=O)N[C@@H](Cc1ccccc1)C(=O)N[C@H](C(=O)N[C@@H](CCCCN)C(=O)N[C@@H](Cc1c[nH]c2ccccc12)C(=O)N[C@@H](CC(C)C)C(=O)N[C@@H](CCC(=O)O)C(=O)N[C@@H](CC(=O)O)C(=O)N[C@@H](CCC(=O)O)C(=O)N1CCC[C@H]1C(=O)N[C@@H](CO)C(=O)N[C@@H](CO)C(=O)NCC(=O)N[C@@H](C)C(=O)N1CCC[C@H]1C(=O)N1CCC[C@H]1C(=O)N1CCC[C@H]1C(=O)N[C@@H](CO)C(=O)O)C(C)C` [Compound A44] (H-YSHGTFTSDYSKYLDQARAQEFVKWLEDEPSSGAPPPS-OH; N-terminus assumed), the EC50 is over 1 nM in data set [2] (setting [6]) and 0.00126 nM in data set [3] (Table 3). This molecule also yielded a clearance in data set [4] of 23.9 mL/min/kg.

As to `CC(C)C[C@H](NC(=O)[C@H](Cc1ccc(O)cc1)NC(=O)[C@H](CCCCN)NC(=O)[C@H](CO)NC(=O)[C@H](Cc1ccc(O)cc1)NC(=O)[C@H](CC(=O)O)NC(=O)[C@H](CO)NC(=O)[C@@H](NC(=O)[C@H](Cc1ccccc1)NC(=O)[C@@H](NC(=O)CNC(=O)[C@H](Cc1c[nH]cn1)NC(=O)[C@H](CO)NC(=O)[C@@H](N)Cc1ccc(O)cc1)[C@@H](C)O)[C@@H](C)O)C(=O)N[C@@H](CC(=O)O)C(=O)N[C@@H](CO)C(=O)N[C@@H](C)C(=O)N[C@@H](CCCNC(=N)N)C(=O)N[C@@H](C)C(=O)N[C@@H](CCC(N)=O)C(=O)N[C@@H](CCC(=O)O)C(=O)N[C@@H](Cc1ccccc1)C(=O)N[C@H](C(=O)N[C@@H](CCCCN)C(=O)N[C@@H](Cc1c[nH]c2ccccc12)C(=O)N[C@@H](CC(C)C)C(=O)N[C@@H](CCC(=O)O)C(=O)N[C@@H](CC(=O)O)C(=O)N[C@@H](CCC(=O)O)C(=O)N1CCC[C@H]1C(=O)N[C@@H](CCCCN)C(=O)N[C@@H](CO)C(=O)N[C@@H](CCCCN)C(=O)N[C@@H](CO)C(=O)N1CCC[C@H]1C(=O)N1CCC[C@H]1C(=O)N1CCC[C@H]1C(=O)N[C@@H](CO)C(=O)O)C(C)C` [Compound A70] (H-YSHGTFTSDYSKYLDSARAQEFVKWLEDEPKSKSPPPS-OH; N-terminus assumed), the EC50 in data set [2] (setting [6]) is over 1 nM; in data set [3] (Table 3), 0.001 nM. The molecule further registered a clearance in data set [4] of 20.9 mL/min/kg.

Consider `CC(C)C[C@H](NC(=O)[C@H](Cc1ccc(O)cc1)NC(=O)[C@H](CCCCN)NC(=O)[C@H](CO)NC(=O)[C@H](Cc1ccc(O)cc1)NC(=O)[C@H](CC(=O)O)NC(=O)[C@H](CO)NC(=O)[C@@H](NC(=O)[C@H](Cc1ccccc1)NC(=O)[C@@H](NC(=O)CNC(=O)[C@H](Cc1c[nH]cn1)NC(=O)[C@H](CO)NC(=O)[C@@H](N)Cc1ccc(O)cc1)[C@@H](C)O)[C@@H](C)O)C(=O)N[C@@H](CC(=O)O)C(=O)N[C@@H](CO)C(=O)N[C@@H](C)C(=O)N[C@@H](CCCNC(=N)N)C(=O)N[C@@H](C)C(=O)N[C@@H](CCC(N)=O)C(=O)N[C@@H](CCC(=O)O)C(=O)N[C@@H](Cc1ccccc1)C(=O)N[C@H](C(=O)N[C@@H](CCCCN)C(=O)N[C@@H](Cc1c[nH]c2ccccc12)C(=O)N[C@@H](CC(C)C)C(=O)N[C@@H](CCC(=O)O)C(=O)N[C@@H](CC(=O)O)C(=O)N[C@@H](CCC(=O)O)C(=O)N1CCC[C@H]1C(=O)N[C@@H](CCCCN)C(=O)N[C@@H](CO)C(=O)N[C@@H](CCCCN)C(=O)N[C@@H](CO)C(=O)N1CCC[C@H]1C(=O)N1CCC[C@H]1C(=O)N1CCC[C@H]1C(=O)N[C@@H](CO)C(N)=O)C(C)C` [Compound A73] (H-YSHGTFTSDYSKYLDSARAQEFVKWLEDEPKSKSPPPS-NH2; N-terminus assumed), for which the EC50 in data set [2] (setting [6]) is over 1 nM; in data set [3] (Table 3), 0.002 nM. Besides, in data set [4], the clearance came out at 23 mL/min/kg.

`CC(C)C[C@H](NC(=O)[C@H](Cc1ccc(O)cc1)NC(=O)[C@H](CCCCN)NC(=O)[C@H](CO)NC(=O)[C@H](Cc1ccc(O)cc1)NC(=O)[C@H](CC(=O)O)NC(=O)[C@H](CO)NC(=O)[C@@H](NC(=O)[C@H](Cc1ccccc1)NC(=O)[C@@H](NC(=O)CNC(=O)[C@H](Cc1c[nH]cn1)NC(=O)[C@H](CO)NC(=O)[C@@H](N)Cc1ccc(O)cc1)[C@@H](C)O)[C@@H](C)O)C(=O)N[C@@H](CC(=O)O)C(=O)NC(C)(C)C(=O)N[C@@H](C)C(=O)N[C@@H](CCCNC(=N)N)C(=O)N[C@@H](C)C(=O)N[C@@H](CCC(N)=O)C(=O)N[C@@H](CCC(=O)O)C(=O)N[C@@H](Cc1ccccc1)C(=O)N[C@H](C(=O)NC(C)(C)C(=O)N[C@@H](Cc1c[nH]c2ccccc12)C(=O)N[C@@H](CC(C)C)C(=O)N[C@@H](CCC(=O)O)C(=O)N[C@@H](CC(=O)O)C(=O)N[C@@H](CCC(=O)O)C(=O)N1CCC[C@H]1C(=O)N[C@@H](CO)C(=O)N[C@@H](CO)C(=O)NCC(=O)N[C@@H](C)C(=O)N1CCC[C@H]1C(=O)N1CCC[C@H]1C(=O)N1CCC[C@H]1C(=O)N[C@@H](CO)C(=O)O)C(C)C` [Compound A103] (H-YSHGTFTSDYSKYLD[Aib]ARAQEFV[Aib]WLEDEPSSGAPPPS-OH; N-terminus assumed): the EC50 was over 1 nM in data set [2] (setting [6]); over 1 nM in data set [2] (hGLP1 pEC50 (cAMP) mean (n = 3): 11 point curve starting at 1 nM, Table 2B); 0.00126 nM in data set [3] (Table 2B). In data set [4], this molecule registered a clearance of 28.5 mL/min/kg. The solubility (in general, the dissolved amount per volume that the medium holds) in data set [5] was over 200 mg/mL. The “hGCGR pEC50 (cAMP mean (n = 3): 11 point curve starting at 1 nM)” value in data set [3] (Table 3) is 11.9.
